Measurements from patent US20050020576A1, “Kappa agonist compounds and pharmaceutical formulations thereof” (priority 1996, published 2005).
Where a name gives a salt, the structure may show the parent alone.

| SMILES | melting point |
| --- | --- |
| CN(C(=O)Cc1ccc(O)c(NS(C)(=O)=O)c1)[C@H](CN1CCCC1)c1ccccc1 (as salt: HCl) [Example 124, 2-(3-N-Methylsulfonamido-3-amino-4-hydroxyphenyl)-N-methyl-N-[(1S)-1-phenyl-2-(1-pyrrolidinyl)ethyl]acetamide] | 228 to 230 °C |
| CCOP(=O)(OCC)N1CCN(C(=O)Cc2ccc(Cl)c(Cl)c2)[C@H](CN2CCCC2)C1 (as salt: hydrochloride) [(R-3g), (R)-4-(Diethoxyphosphonate)-1-[(3,4-dichlorophenyl)acetyl]-2-[(1-pyrolidinyl)methyl]-piperazine hydrochloride] | 168 to 170 °C |
| COC(=O)CNC(=O)c1ccccc1CC(=O)N(C)[C@H](CN1CCCC1)c1ccccc1 (as salt: hydrochloride) [Example 3mm, Methyl N-[2-(2-pheny)-N-methyl-N-{[1S]-1-phenyl-2-(1-pyrrolidinyl)ethyl}acetamido]2-oxo-glycinate hydrochloride] | 204 to 206 °C |
| CN(C(=O)Cc1ccc(Cl)c(Cl)c1)[C@@H]1c2cc(S(=O)(=O)N(C)Cc3ccccc3)ccc2CC[C@H]1N1CCCC1 (racemic) (as salt: HCl) | 251 to 254 °C |
| CN(C(=O)Cc1ccc(S(C)(=O)=O)cc1)[C@@H]1c2ccccc2C[C@H]1N1CCCC1 (racemic) (as salt: HCl) | 246 to 248 °C |
| CN(C(=O)Cc1ccccc1NS(C)(=O)=O)[C@@H]1CCCC[C@H]1N1CCCC1.Cl (racemic) | 229 to 231 °C |
| COC(=O)N1CCN(C(=O)Cc2ccc(S(C)(=O)=O)cc2)C(CN2CCCC2)C1 (racemic) (as salt: hydrochloride) [(R,S-9a), (R,S)-Methyl 4-[(4-methylsulfonylphenyl)acetyl]-3-[(1-pyrrolidinyl)-methyl]-1-piperazinecarboxylate hydrochloride] | 225 °C |
| COc1cc(CC(=O)N(C)[C@H](CN2CCCC2)c2ccccc2)c(S(=O)(=O)N2CCCC2)cc1OC (as salt: HCl) [Example 134, 2-[2-(N-Pyrrolidinesulfamoyl)-4,5-dimethoxyphenyl]-N-methyl-N-[(1S)-1-phenyl-2-[(1-pyrrolidinyl)ethyl]]acetamide] | 240 to 242 °C |
| CN(C(=O)Cc1ccccc1N)[C@H](CN1CCCC1)c1cccc(N)c1 (as salt: HCl) | 219 to 222 °C |
| COc1ccc(C(CN2CCCC2)N(C)C(=O)Cc2ccccc2NS(C)(=O)=O)cc1 (racemic) (as salt: salt) [Example 128] | 170 to 172 °C |
| CN(C(=O)Cc1cc(Cl)c(Cl)cc1[N+](=O)[O-])[C@@H]1c2ccccc2C[C@H]1N1CCCC1 (racemic) (as salt: HCl) | 284 to 287 °C |
| CS(=O)(=O)N1CCN(C(=O)Cc2c[nH]c3ccccc23)C(CN2CCCC2)C1 (racemic) (as salt: hydrochloride) [(R,S-8e), (R,S)-4-Methanesulfonyl-1-[(3-indolylacetyl-2-[(1-pyrrolidinyl)-methyl]piperazine hydrochloride] | 219 to 221 °C |
| CN(C(=O)Cc1ccccc1NS(C)(=O)=O)[C@H](CN1CCCC1)c1cccc(NS(C)(=O)=O)c1 (as salt: hydrochloride) [Example 3pp, 2-(2-Methanesulfonamidophenyl)-N-methyl-N-[(1S)-1-(3-methanesulfon-amidophenyl)-2-(1-pyrrolidinyl)ethyl]acetamide Hydrochloride] | 160 °C (dec.) |
| COC(=O)N1CCN(C(=O)Cc2c[nH]c3ccccc23)C(CN2CCCC2)C1 (racemic) (as salt: hydrochloride) [(R,S-9c), (R,S)-Methyl 4-[(3-indolyl)acetyl]-3-[(1-pyrrolidinyl)-methyl]-1-piperazine-carboxylate hydrochloride] | 143 °C |
| COC(=O)N1CCN(C(=O)Cc2ccccc2OC)C(CN2CCCC2)C1 (racemic) (as salt: hydrochloride) [(R,S-9e)] | 120 °C |
